Results reported in ChEMBL document CHEMBL1201862, “PubChem BioAssay data set” (2004).
Calls of active or inactive are those of the source.

Experiments:
[1] = HEp-2 cell cytotoxicity, dose response, cytotoxicity control for RSV inhibitor project, HTS (AID 2410); type: functional; details: human respiratory syncytial virus
BJ [2] = assay: cytotoxicity toward BJ-TERT fibroblasts, dose response, cell-based, RAS-independent, luminescence (AID 1933); type: functional; details: Homo sapiens
BJ [3] = assay: cells; type: functional, cell-based; details: Homo sapiens
[4] = inhibitors of intracellular T. cruzi replication, confirmation, NIH3T3 host cells, beta-gal luminescence (AID 2044); type: functional, cell-based;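 also: intracellular parasites grown in NIH/3T3 mouse fibroblasts as host cells; luminescent beta-galactosidase reporter signal from transgenic T. cruzi replicating inside host cells; inhibitors lower the luminescence signal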
BJ [5] = assay: cytotoxicity toward BJ-TERT-LT-ST fibroblasts, dose response, cell-based, RAS-independent, luminescence (AID 1935); type: functional; details: Homo sapiens;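 also: BJ fibroblasts immortalized with TERT plus LT and ST oncogenes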
[6] = cytotoxicity toward DRD oncogenic fibroblasts, dose response, cell-based, non-viral oncogenic, luminescence (AID 1934); type: functional; details: Homo sapiens
[7] = target: T1, Microphthalmia-associated transcription factor (Homo sapiens, UniProt O75030); assay: TRPM1 promoter luciferase signal decrease, dose response, MITF inhibitor project, cell-based, SK-MEL-5, cherry-picked, set 3 (AID 493073); type: functional
T1 sequence (O75030 whole entry): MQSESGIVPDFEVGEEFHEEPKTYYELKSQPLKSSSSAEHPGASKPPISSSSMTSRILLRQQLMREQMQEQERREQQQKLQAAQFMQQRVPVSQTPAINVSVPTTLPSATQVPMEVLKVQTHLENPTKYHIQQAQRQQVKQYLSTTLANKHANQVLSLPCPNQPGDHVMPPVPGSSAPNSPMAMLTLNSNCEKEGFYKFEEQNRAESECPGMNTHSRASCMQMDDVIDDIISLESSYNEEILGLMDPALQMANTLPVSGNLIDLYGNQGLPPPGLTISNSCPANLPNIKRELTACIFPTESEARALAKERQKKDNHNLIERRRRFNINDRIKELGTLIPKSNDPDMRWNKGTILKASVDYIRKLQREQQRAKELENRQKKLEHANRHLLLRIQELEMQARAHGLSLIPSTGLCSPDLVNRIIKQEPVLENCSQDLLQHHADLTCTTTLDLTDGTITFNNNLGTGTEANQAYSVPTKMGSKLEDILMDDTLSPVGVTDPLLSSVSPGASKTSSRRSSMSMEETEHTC

[8] = target: Beta-2 adrenergic receptor (Homo sapiens, UniProt P07550); assay: beta2AR agonists driving receptor internalization, dose response, cell-based, FAP fluorogen, flow cytometry, cherry pick 1 (AID 588763); type: functional
Sequence of Beta-2 adrenergic receptor (P07550 whole entry): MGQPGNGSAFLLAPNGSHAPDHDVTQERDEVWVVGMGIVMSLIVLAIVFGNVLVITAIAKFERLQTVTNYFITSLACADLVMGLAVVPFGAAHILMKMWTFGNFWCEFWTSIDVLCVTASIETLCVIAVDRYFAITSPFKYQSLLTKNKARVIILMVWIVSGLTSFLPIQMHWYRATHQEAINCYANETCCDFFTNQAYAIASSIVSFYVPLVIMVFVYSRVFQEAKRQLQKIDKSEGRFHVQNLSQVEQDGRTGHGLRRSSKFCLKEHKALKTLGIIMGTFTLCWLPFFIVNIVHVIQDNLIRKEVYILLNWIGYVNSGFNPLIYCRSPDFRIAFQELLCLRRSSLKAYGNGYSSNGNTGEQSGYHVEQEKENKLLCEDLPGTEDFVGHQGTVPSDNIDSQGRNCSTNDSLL

[9] = A549 cell cytotoxicity, dose response, cytotoxicity control, plate reader, cherry-pick, antagonist series (AID 743412); type: functional, cell-based
[10] = LGR2 antagonists, dose response, cell-based, HEK293, CRE-luciferase reporter, cherry pick, set 2 (AID 743343); type: functional;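 also: transfected cells were stimulated with diluted bursicon conditioned medium after compound addition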
[11] = MC4R antagonists, dose response, counter-screen for LGR2 antagonist project, cell-based, plate reader, cherry pick (AID 743444); type: functional;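 also: transfected HEK 293 cells stimulated with alpha-MSH peptide; potency of inhibitors of the alpha-MSH evoked signal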
Cytochrome P450 2C19 = Cytochrome P450 2C19 (Homo sapiens, UniProt P33261); assay: Cytochrome panel assay with activity outcomes. Panel member name: p450-cyp2c19 Compounds with AC50 equal or less than 10 uM are considered active; type: functional
Sequence of Cytochrome P450 2C19 (P33261 whole entry): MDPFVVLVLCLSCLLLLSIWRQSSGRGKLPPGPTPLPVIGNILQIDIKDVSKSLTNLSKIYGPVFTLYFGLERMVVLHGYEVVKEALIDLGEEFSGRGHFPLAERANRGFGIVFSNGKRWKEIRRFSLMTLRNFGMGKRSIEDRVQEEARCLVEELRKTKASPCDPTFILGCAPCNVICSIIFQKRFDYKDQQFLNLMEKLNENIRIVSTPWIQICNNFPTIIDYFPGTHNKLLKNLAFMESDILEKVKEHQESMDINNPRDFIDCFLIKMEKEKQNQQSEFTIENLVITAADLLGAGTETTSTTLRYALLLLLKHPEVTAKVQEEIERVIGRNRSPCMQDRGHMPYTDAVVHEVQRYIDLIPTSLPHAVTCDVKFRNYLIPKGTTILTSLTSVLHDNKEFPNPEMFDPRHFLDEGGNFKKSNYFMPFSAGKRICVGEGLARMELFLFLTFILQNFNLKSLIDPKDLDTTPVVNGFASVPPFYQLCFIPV

Cytochrome P450 2C9 = Cytochrome P450 2C9 (Homo sapiens, UniProt P11712)
Sequence of Cytochrome P450 2C9 (P11712 whole entry, the tested form may be a part): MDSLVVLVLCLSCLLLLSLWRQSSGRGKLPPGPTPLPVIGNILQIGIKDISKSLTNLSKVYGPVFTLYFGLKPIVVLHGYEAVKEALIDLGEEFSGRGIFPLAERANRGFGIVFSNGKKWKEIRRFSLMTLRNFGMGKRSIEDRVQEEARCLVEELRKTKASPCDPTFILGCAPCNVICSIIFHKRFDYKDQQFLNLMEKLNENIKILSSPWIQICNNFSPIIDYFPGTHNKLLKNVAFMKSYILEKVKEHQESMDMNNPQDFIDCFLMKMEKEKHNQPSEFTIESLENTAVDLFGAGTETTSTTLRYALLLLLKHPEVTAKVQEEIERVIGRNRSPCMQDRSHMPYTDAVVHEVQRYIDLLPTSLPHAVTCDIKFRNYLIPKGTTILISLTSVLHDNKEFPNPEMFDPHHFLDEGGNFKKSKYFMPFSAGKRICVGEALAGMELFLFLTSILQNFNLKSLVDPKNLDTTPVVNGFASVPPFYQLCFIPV

[12] = target: T2, Carboxy-terminal domain RNA polymerase II polypeptide A small phosphatase 1 (Homo sapiens, UniProt Q9GZU7); assay: inhibitors of CTDSP1, concentration-response testing, biochemical assay, absorbance-based, actives from ultra-high-throughput screening (AID 540297); type: functional
T2 sequence (Q9GZU7 whole entry): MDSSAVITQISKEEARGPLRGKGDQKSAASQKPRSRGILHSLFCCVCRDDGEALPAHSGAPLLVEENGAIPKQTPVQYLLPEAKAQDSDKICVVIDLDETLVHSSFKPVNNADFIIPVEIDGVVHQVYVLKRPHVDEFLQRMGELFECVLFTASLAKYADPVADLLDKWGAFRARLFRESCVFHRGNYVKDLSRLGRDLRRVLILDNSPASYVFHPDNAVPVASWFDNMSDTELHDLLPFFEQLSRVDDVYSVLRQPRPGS

[13] = target: T3, Short transient receptor potential channel 4 (Mus musculus, UniProt Q9QUQ5); assay: mouse TRPC4 channel activators, dose response, cell-based, HEK293 TRPC4/mu-opioid, Fluo-4 calcium (AID 434937); type: functional
T3 sequence (Q9QUQ5 whole entry): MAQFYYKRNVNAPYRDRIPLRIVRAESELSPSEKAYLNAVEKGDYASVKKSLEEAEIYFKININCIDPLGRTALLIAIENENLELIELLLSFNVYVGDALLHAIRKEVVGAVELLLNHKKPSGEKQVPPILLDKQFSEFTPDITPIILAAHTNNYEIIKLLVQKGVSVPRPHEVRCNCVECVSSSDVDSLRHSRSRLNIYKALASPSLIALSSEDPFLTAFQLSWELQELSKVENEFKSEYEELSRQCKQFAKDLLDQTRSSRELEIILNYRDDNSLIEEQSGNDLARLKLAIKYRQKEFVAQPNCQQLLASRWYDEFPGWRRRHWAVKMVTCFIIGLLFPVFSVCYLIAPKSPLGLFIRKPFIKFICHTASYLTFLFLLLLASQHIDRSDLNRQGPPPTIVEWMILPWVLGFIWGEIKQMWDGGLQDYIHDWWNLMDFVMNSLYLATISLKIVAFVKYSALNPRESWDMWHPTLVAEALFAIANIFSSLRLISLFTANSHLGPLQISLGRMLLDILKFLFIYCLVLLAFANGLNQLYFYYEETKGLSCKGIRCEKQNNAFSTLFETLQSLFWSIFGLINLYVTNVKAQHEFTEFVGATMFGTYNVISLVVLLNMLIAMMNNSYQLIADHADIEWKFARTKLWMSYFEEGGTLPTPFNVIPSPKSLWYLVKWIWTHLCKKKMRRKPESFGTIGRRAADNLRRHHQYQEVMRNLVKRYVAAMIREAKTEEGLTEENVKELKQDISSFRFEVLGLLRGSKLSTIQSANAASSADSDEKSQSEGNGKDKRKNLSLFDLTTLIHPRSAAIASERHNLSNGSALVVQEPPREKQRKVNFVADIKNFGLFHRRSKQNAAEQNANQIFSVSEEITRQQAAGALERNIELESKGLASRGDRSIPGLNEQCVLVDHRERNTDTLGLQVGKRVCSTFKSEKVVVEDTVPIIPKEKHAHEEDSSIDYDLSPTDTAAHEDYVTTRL

[14] = THP-1 cell cytotoxicity, dose response, cytotoxicity control for non-replicating M. tuberculosis project (AID 489025); type: functional
X-box-binding protein 1 = target: T4, X-box-binding protein 1 (Homo sapiens, UniProt P17861); type: functional, Cricetulus griseus;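 also: confirmatory dose-response counter-screen serving a CHOP assay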
T4 sequence (P17861 whole entry): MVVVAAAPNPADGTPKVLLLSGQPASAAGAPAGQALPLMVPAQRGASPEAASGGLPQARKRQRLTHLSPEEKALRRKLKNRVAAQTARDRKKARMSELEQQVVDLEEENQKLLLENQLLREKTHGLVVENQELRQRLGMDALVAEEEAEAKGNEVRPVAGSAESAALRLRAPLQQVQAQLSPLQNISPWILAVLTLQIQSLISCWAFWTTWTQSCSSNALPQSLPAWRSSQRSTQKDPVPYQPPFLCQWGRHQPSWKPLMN

cells = type: functional
BJ [15] = assay: cytotoxicity toward Ras-transformed BJeLR fibroblasts, dose response, cell-based, alamar blue fluorescence, cherrypicked samples (AID 2631); type: functional; details: Homo sapiens;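 also: confirmatory dose-response assay in RAS-dependent BJ fibroblasts engineered with TERT, LT and ST, with cytotoxicity read by fluorescence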
HEK293 [16] = assay: NOD1 signaling inhibitors, primary screen, cell-based, luminescence, uHTS (AID 1578); type: functional; details: Homo sapiens
HEK293 [17] = assay: cells; type: functional, cell-based; details: Homo sapiens
HEK293 [18] = assay: cells; type: functional, cell-based; details: Homo sapiens; remark: listed apart in the source
[19] = target: Nucleotide-binding oligomerization domain-containing protein 2 (Homo sapiens, UniProt Q9HC29); assay: NOD2 signaling inhibitors, cell-based, luminescence, uHTS, HEK293 (AID 1566); type: functional
Sequence of Nucleotide-binding oligomerization domain-containing protein 2 (Q9HC29 whole entry, the tested form may be a part): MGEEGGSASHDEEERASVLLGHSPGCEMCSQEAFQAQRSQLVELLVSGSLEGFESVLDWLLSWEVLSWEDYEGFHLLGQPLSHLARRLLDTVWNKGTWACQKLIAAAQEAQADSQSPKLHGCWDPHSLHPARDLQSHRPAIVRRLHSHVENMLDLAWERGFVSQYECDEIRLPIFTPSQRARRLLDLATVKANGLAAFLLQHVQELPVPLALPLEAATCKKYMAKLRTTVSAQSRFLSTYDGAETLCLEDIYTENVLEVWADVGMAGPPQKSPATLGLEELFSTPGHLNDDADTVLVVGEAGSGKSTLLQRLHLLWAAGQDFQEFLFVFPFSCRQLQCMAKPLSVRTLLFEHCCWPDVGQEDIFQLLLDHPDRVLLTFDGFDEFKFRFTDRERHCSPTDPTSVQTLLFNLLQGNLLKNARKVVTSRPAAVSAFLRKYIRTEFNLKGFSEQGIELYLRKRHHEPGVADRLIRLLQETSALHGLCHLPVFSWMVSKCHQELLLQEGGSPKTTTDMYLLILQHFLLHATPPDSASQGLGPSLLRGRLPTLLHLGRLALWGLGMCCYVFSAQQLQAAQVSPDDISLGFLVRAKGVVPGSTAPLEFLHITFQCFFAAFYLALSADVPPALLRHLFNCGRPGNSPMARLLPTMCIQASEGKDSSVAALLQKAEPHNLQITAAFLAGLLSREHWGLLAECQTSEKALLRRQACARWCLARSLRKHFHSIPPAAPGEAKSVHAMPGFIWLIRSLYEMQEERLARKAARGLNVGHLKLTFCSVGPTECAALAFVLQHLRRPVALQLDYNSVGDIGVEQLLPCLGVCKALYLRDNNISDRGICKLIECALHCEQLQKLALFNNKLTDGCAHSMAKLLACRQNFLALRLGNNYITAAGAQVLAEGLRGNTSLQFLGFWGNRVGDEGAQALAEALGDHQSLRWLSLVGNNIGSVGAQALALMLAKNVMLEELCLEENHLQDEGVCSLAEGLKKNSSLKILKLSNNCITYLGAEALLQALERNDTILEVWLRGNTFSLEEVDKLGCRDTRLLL

HEK293 [20] = assay: NOD2 signaling inhibitors in MDP-stimulated cells, cell-based, uHTS, luminescence (AID 2001); type: functional; details: Homo sapiens
[21] = cytotoxicity toward NIH3T3 fibroblasts, dose response, counter-screen, cell-based, ATP luminescence, mouse fibroblasts (AID 2010); type: functional;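 also: cells exposed to compound for about 90 hours before reading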
Cytochrome P450 2D6 = Cytochrome P450 2D6 (Homo sapiens, UniProt P10635);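 also: CYP2D6 member of a cytochrome P450 panel assay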
Sequence of Cytochrome P450 2D6 (P10635 whole entry): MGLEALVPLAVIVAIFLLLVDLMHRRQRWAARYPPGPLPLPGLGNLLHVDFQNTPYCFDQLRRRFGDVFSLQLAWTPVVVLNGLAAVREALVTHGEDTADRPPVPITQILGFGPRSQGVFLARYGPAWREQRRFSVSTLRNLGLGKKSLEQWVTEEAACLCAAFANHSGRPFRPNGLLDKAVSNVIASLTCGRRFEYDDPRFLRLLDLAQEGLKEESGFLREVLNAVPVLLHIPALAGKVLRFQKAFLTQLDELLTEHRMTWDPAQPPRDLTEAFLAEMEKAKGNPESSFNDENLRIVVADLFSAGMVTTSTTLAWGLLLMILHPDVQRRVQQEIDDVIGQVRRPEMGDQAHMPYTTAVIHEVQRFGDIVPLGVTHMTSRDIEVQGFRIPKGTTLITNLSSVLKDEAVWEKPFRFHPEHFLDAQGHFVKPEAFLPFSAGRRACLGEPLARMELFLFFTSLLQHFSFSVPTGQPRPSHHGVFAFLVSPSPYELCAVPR

Cytochrome P450 1A2 = target: T5, Cytochrome P450 1A2 (Homo sapiens, UniProt P05177);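 also: PubChem cytochrome P450 panel assay, CYP1A2 panel member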
T5 sequence (P05177 whole entry): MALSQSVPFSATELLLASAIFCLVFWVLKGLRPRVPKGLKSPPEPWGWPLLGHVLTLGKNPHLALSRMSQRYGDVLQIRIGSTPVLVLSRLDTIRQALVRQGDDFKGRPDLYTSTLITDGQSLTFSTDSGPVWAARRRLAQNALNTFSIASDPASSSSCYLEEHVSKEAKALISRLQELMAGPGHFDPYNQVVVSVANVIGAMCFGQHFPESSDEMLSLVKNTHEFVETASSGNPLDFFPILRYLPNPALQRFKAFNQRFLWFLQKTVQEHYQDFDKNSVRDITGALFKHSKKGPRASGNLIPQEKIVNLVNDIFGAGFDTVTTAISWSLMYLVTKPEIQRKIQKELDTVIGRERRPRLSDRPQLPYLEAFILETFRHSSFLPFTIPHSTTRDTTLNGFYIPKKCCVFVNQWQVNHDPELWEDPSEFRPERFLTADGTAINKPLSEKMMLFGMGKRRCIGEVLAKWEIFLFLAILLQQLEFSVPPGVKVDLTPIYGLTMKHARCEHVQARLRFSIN

HeLa = assay: HeLa cell cytotoxicity, dose response, cytotoxicity control for MITF activator project, CellTiter-Glo luminescence, cherry-pick samples (AID 540259); type: functional, cell-based; details: Homo sapiens

O=C(COC(=O)c1ccccc1C(=O)c1ccc(Cl)c([N+](=O)[O-])c1)NC1CC1
CC50 [1]: 10.2 µM (active) | EC50 (BJ [2]): 5.11 µM (active) | EC50 (BJ [3]): 6.82 µM (inconclusive) | EC50 [4]: 3.79 µM (active) | EC50 (BJ [5]): 92.6 µM (inconclusive) | EC50 [6]: 10.1 µM (inconclusive) | AC50 [7]: 8.92 µM (active) | EC50 [8]: 13.3 µM (inactive) | AC50 [9]: 7.05 µM (active) | AC50 [10]: 11.8 µM (active) | AC50 [11]: 15.4 µM (active)

CCCC12CN3CC(CCC)(CN(C1)C3C(O)C(O)C(O)CO)C2=O (stereo not given)
AC50 (Cytochrome P450 2C19): inconclusive | AC50 (Cytochrome P450 2C9): inconclusive

CCc1ccc(Nc2nnc(SCC(=O)NC(=O)CN3CCCC3=O)s2)cc1
IC50 [12]: 15 µM (active)

CCC(=O)N1CCc2cc(Br)cc(S(=O)(=O)N(C)c3ccc(OC)cc3)c21
EC50 [8]: 0.0271 µM (active)

CN(CCc1nc2cc(Cl)ccc2[nH]1)Cc1nc(CC2CC2)no1
EC50 [13]: 5.31 µM (active)

Fc1ccc(-c2nn(-c3ccccc3)cc2CNCc2ccccc2)cc1
CC50 [1]: 17.9 µM (active) | CC50 [14]: 26 µM (active) | EC50 [13]: 5.31 µM (active) | Absolute IC50 (XBP1) (X-box-binding protein 1): 10 µM | IC50 (cells): 21.6 µM (active)

CCNc1nc(NCC)n2c(SCC(=O)Nc3ccc(OC(F)F)cc3)nnc2n1
IC50 [12]: 9.83 µM (active)

CCc1ccc(NC(=O)[C@H](Cc2c[nH]c3ccccc23)NC(=O)[C@@H]2Cc3ccccc3CN2)cc1
EC50 (BJ [2]): > 150 µM (not active) | EC50 (BJ [3]): 10.8 µM (active) | EC50 (BJ [5]): > 150 µM (not active) | EC50 [6]: > 150 µM (inconclusive) | EC50 (BJ [15]): > 133 µM (inactive)

CC1(C)Cc2c(c(-c3ccco3)nc3sc4c(NCC5CCCO5)ncnc4c23)CO1 (stereo not given)
EC50 [8]: 0.0919 µM (active)

CCc1ccccc1N=C(S)NCc1ccc2c(c1)OCO2
AC50 (Cytochrome P450 2C9): inconclusive

Cc1cc(NC(=O)CN2CCc3ccccc3C2)nc2c1c(=O)oc1ccccc12
EC50 [13]: 1.19 µM (active)

COc1cc(OC)c(OC)cc1/C=C1\CCC/C(=C\c2cc(OC)c(OC)cc2OC)C1=O
EC50 (HEK293 [16]): 15.5 µM (active) | IC50 (HEK293 [17]): 5.03 µM (active) | IC50 (HEK293 [18]): 18.1 µM (active) | EC50 [19]: 13 µM (active) | IC50 (HEK293 [20]): 6.27 µM (active) | EC50 [4]: 1.51 µM (active) | EC50 [21]: 6.67 µM (active)

CCc1cccc(CC)c1N=C(S)NCC(c1cccnc1)N(C)C (stereo not given)
EC50 [13]: 0.168 µM (active)

COCCn1c(=O)c(C)nc2cnc(N3CCN(C)CC3)nc21
AC50 (Cytochrome P450 2C9): inconclusive

O=S(=O)(c1ccc(Cl)cc1)N1CCN2CCCC2C1 (stereo not given)
EC50 [13]: 4.73 µM (active)

O=[N+]([O-])c1ccc(Cl)c(/C=N/N2CCN(Cc3ccccc3Cl)CC2)c1
AC50 (Cytochrome P450 2D6): 7.94 µM (inconclusive) | AC50 (Cytochrome P450 1A2): 2.51 µM (inconclusive) | AC50 (Cytochrome P450 2C9): inconclusive

CCCc1ccc(OCc2nc(-c3ccc(NC(=O)c4cccs4)cc3)no2)cc1
AC50 (HeLa): 49.1 µM (active) | EC50 [8]: 0.539 µM (active)
